Results reported in US20240238300A1, “TREATMENT METHODS FOR SUBJECTS WITH CANCER HAVING AN ABERRATION IN EGFR AND/OR HER2” (TAIHO PHARMACEUTICAL CO., LTD., priority 2021, published 2024).
Read-outs that look alike come from different tables or passages of the source.

Experiments:
[1] = biological target: T1, human BCRP (Homo sapiens, UniProt Q9UNQ0); assay: substrate susceptibility on human BCRP, bidirectional transcellular transport, BCRP/MDCK II cells; assay type: in vitro ADME; parameters: expressed in transfected cells; host or cells: MDCK II (canine kidney) cells expressing human BCRP; parent MDCK II as control
T1 sequence (Q9UNQ0 1-655): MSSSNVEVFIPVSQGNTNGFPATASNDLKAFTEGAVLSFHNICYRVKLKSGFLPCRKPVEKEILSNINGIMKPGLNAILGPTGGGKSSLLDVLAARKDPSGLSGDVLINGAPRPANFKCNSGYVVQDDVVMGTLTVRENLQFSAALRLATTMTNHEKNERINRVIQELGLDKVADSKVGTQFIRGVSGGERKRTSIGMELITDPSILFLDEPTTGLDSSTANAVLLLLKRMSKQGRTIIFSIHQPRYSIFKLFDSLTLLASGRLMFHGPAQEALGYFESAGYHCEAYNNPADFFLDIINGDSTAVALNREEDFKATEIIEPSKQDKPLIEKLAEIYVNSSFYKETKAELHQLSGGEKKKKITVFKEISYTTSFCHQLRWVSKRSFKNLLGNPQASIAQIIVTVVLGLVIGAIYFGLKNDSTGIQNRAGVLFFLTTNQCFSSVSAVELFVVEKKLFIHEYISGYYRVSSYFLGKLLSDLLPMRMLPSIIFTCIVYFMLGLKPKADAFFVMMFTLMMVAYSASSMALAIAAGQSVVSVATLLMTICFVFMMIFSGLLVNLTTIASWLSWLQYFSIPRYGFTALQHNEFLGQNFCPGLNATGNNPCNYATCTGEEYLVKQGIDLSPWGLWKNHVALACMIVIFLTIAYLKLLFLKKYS
Description: Substrate susceptibility of Compound (1) on human BCRP. Time-dependence of the bidirectional transcellular transport of 0.3, 0.5, 1, 3, and 30 μmol/L Compound (1) across human BCRP/Madin-Darby canine kidney II (MDCK II) cells and parent/MDCK II cells was analyzed.

[2] = pharmacokinetics after single oral administration; assay type: in vivo, male nude mice; conditions: plasma; for AUC(0-t): male, nude, mouse, read-out: AUC0-24
Description: Compound (1) was orally administered. The concentrations of Compound (1) were quantified using LC-MS/MS for the PK studies. ^13C-labeled Compound (1) was used as an internal standard.
Pharmacokinetics in nude mice after single oral administration. Plasma concentration profiles and PK parameters of Compound (1) were determined in male nude mice following a single oral administration at doses of 6.25, 12.5, and 25 mg/kg (FIGS. 4A and 4B, and Table 4). The Cmax, AUClast, and AUC0-24 values increased in a dose dependent manner.

[3] = test system: intracranial NCI-N87-luc human gastric carcinoma xenografts; assay: intracranial antitumor effect with various dosing schedules, NCI-N87-luc xenografts; assay type: in vivo, nude mice; conditions: Day 22; for T/C ratio of the mean total flux: 21 days
Description: The intracranial antitumor effect of Compound (1) with various dosing schedules ((i) QD, (ii) intermittent, and (iii) 4 days-on/3 days-off) was evaluated using Compound (1) in nude mice intracranially implanted with NCI-N87-luc cells, which were engineered to stably express the luciferase gene using the HER2-overexpressing NCI-N87 human gastric carcinoma cell line.
Compound (1) dosing suspensions using 0.5% weight per volume (w/v) hydroxypropyl methylcellulose (HPMC) as vehicle were prepared with Compound (1) at 2 dose levels (25.0 or 50.0 mg/kg/day) and orally administered with various dosing schedules ((i) QD, (ii) intermittent, and (iii) 4 days-on/3 days-off) for 21 days. The (i) QD dosing schedule in this example was dosing every day on day 1 to day 21. The (ii) intermittent dosing schedule in this example used sequential 7-day periods that each comprise alternating 4 days-on and 3 days-off. That is, this schedule involved dosing on days 1, 3, 5, 7, 8, 10, 12, 14, 15, 17, 19, and 21. The (iii) 4 days-on/3 days-off dosing schedule was dosing on days 1, 2, 3, 4, 8, 9, 10, 11, 15, 16, 17, and 18. The control group received 0.5% w/v HPMC solution orally once daily for 21 days.

[4] = biological target: T2, human P-gp (Homo sapiens, UniProt P08183); assay: inhibitory effect on human P-gp, bidirectional transport of [^3H]digoxin; assay type: in vitro ADME
T2 construct: expressed in transfected cells; host or cells: LLC-PK1 (porcine kidney) cells expressing human P-gp; mock/LLC-PK1 as control
T2 sequence (P08183 whole entry): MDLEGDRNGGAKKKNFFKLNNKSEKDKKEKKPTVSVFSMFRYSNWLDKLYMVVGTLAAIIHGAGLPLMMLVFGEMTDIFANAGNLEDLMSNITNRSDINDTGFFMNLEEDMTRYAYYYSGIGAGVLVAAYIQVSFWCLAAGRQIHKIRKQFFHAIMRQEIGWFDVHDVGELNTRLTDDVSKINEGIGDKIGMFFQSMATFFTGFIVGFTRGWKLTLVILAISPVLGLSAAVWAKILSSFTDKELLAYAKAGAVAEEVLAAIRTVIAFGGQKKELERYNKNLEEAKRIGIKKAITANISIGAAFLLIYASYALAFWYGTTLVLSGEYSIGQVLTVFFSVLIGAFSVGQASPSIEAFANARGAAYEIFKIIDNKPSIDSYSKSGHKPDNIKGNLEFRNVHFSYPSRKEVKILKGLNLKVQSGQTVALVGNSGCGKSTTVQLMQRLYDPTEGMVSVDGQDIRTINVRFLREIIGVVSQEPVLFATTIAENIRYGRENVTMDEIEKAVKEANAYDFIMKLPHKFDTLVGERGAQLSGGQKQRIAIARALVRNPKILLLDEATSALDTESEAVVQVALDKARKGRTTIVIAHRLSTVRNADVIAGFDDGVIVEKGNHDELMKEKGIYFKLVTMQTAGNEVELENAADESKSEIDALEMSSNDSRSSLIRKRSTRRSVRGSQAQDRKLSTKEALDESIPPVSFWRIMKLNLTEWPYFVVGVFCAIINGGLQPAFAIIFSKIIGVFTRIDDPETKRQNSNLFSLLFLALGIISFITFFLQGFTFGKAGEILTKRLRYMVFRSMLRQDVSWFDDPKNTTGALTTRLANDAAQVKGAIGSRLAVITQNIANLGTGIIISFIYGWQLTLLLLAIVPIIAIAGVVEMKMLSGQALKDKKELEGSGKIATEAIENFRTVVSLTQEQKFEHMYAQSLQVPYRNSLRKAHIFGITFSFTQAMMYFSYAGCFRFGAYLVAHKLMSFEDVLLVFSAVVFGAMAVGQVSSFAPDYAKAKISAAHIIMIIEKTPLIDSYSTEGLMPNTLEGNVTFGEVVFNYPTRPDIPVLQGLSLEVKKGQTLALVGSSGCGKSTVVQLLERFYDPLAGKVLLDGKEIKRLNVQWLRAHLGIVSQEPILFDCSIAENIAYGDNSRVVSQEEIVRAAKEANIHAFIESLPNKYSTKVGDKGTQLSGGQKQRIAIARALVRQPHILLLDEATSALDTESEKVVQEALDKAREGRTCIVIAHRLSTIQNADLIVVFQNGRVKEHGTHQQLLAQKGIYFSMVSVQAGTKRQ
Excerpt: Inhibitory effect of Compound (1) on human P-gp. […] The net flux ratios at the Compound (1) concentrations of 0.01, 0.1, 1, 5, 10, and 100 μmol/L were 5.6±1.0, 5.5±0.7, 6.5±0.5, 2.8±0.5, 1.3±0.2, and 1.0±0.1, respectively. The percent of controls at the Compound (1) concentrations at 0.01, 0.1, 1, 5, 10, and 100 μmol/L were 112%, 110%, 135%, 45%, 7%, and 1%, respectively.

[5] = test system: MDA-MB-175VII cells (DOC4-NRG1 fusion); assay: growth inhibitory effect in NRG1 fusion-driven cancer cell line (GI50); assay type: cell-based; conditions: Homo sapiens, mean of 3-4 independent experiments
Description: GI50 values were also determined for currently approved EGFR/HER2 tyrosine kinase inhibitors: afatinib, osimertinib, tucatinib, lapatinib, and neratinib, and one investigational drug (poziotinib). Mean values were determined from 3-4 independent experiments.

[6] = (ii) intermittent 50.0 mg/kg/day
[7] = (iii) 4 days-on/3 days-off 50.0 mg/kg/day

With `C=CC(=O)N1C[C@H](n2c(C#CC3CC3)c(C(=O)N[C@H](C)c3ccccc3)c3c(N)ncnc32)C[C@@H]1C` [Compound (1), 7-((3R,5S)-1-acryloyl-5-methylpyrrolidin-3-yl)-4-amino-6-(cyclopropylethynyl)-N—((R)-1-phenylethyl)-7H-pyrrolo[2,3-d]pyrimidine-5-carboxamide] the “concentration at which transport via human BCRP is saturable” value [1] was > 1000 nM, the net flux ratio ([1]; 0.3 μmol/L Compound (1), 4 hours) was 1.5±0.6 and the net flux ratio ([1]; 0.5 μmol/L Compound (1) with 10 μmol/L Ko143, 3 hours) was 1.2±0.2. For the same molecule, the net flux ratio ([1]; 0.5 μmol/L Compound (1) with 10 μmol/L Ko143, 4 hours) was 1.2±0.2, the net flux ratio ([1]; 0.5 μmol/L Compound (1), 2 hours) was 1.9±0.9 and the net flux ratio ([1]; 0.5 μmol/L Compound (1), 3 hours) was 3.0±0.9. The net flux ratio ([1]; 0.5 μmol/L Compound (1), 4 hours) was 2.7±0.8, the net flux ratio ([1]; 1 μmol/L Compound (1) with 10 μmol/L Ko143, 4 hours) was 1.4±0.2 and the net flux ratio ([1]; 1 μmol/L Compound (1), 2 hours) was 2.3±0.7. For the same molecule, the net flux ratio ([1]; 1 μmol/L Compound (1), 3 hours) was 1.8±0.4, the net flux ratio ([1]; 1 μmol/L Compound (1), 4 hours) was 2.2±0.7 and the net flux ratio ([1]; 3 μmol/L Compound (1), 2 hours) was 2.0±0.3. The net flux ratio ([1]; 3 μmol/L Compound (1), 3 hours) was 1.6±0.3, the net flux ratio ([1]; 3 μmol/L Compound (1), 4 hours) was 1.5±0.2 and the net flux ratio ([1]; 30 μmol/L Compound (1), 2 hours) was 1.4±0.3. The net flux ratio ([1]; 30 μmol/L Compound (1), 3 hours) was 1.1±0.1, the net flux ratio ([1]; 30 μmol/L Compound (1), 4 hours) was 1.2±0.1 and the “substrate susceptibility on human BCRP” value ([1]; criterion net flux ratio exceeding 2) was “substrate of BCRP”. For the same molecule, the AUC(0-t) ([2]; single oral 6.25 mg/kg) was 822 ± 208 ng·h/mL, the AUC(0-t) ([2]; single oral 25 mg/kg) was 5230 ± 620 ng·h/mL and the AUClast ([2]; single oral 6.25 mg/kg) was 795 ± 229 ng·h/mL. For the same molecule, the Cmax ([2]; single oral 6.25 mg/kg) was 601 ± 111 ng/mL, the Tmax ([2]; single oral 6.25 mg/kg) was 19.8 ± 8.4 min and the AUC0-24 ([2]; single oral 12.5 mg/kg) was 2010 ± 230 ng·h/mL. For the same molecule, the AUClast ([2]; single oral 12.5 mg/kg) was 2010 ± 230 ng·h/mL, the Cmax ([2]; single oral 12.5 mg/kg) was 1590 ± 220 ng/mL and the Tmax ([2]; single oral 12.5 mg/kg) was 15 ± 0 min. For the same molecule, the AUClast ([2]; single oral 25 mg/kg) was 5080 ± 820 ng·h/mL, the Cmax ([2]; single oral 25 mg/kg) was 3580 ± 190 ng/mL and the Tmax ([2]; single oral 25 mg/kg) was 15 ± 0 min. For the same molecule, the “T/C ratio of the mean total flux” value [3, 6] was 3.8%, the “mean body weight change” value [3, 6] was −1.0% and the “T/C ratio of the mean total flux” value [3, 7] was 8.9%. For the same molecule, the “mean body weight change” value [3, 7] was 0.3%, the IC50 [4] was 3.48 µM and the activity at 3 h, 0.01 μmol/L ([4]; human) was 112%. The activity at 3 h, 0.1 μmol/L ([4]; human) was 110%, the activity at 3 h, 1 μmol/L ([4]; human) was 135% and the activity at 3 h, 5 μmol/L ([4]; human) was 45%. For the same molecule, the activity at 3 h, 10 μmol/L ([4]; human) was 7%, the activity at 3 h, 100 μmol/L ([4]; human) was 1% and the GI50 [5] was 0.0012 ± 0.0003 µM.
